pIC50: −log10 of the molar value.
Key:
[1] = tested on: Staphylococcus aureus (S. aureus) 11540 strain; assay: standard microdilution MIC, S. aureus; assay type: cell-based; details: Staphylococcus aureus
Method: (§1) The in vitro activity of the compounds of the present disclosure can be determined. Antimicrobial testing is typically performed to determine the minimum inhibitory concentration (MIC). Minimum inhibitory concentrations (MICs) are determined by the microdilution method in a final volume of 100 μl according to protocols outlined by The Clinical and Laboratory Standards Institute (CLSI). Performance standards for reference strains are assessed within the same experimental design to maintain quality control. See, for example, Clinical Laboratory Standards Institute: Methods for dilution antimicrobial susceptibility tests for bacteria that grow aerobically M7-A8. Approved Standard-Eighth Edition. Wayne, Pa.: CLSI; December 2008; and Clinical Laboratory Standards Institute: Performance Standards for Antimicrobial Susceptibility Testing M100-S20; Approved Standard-Twentieth Edition. Wayne, Pa.: CLSI; June 2010.
(§2) The compounds of the present disclosure were tested for antimicrobial activity. The Compounds 1-23 were run against Eschericia coli (E. coli) strain ATCC25922 and against Staphylococcus aureus (S. aureus) 11540 strain using a standard microdilution assay to determine minimum inhibitory concentrations (MICs). […] It will be recognized by one skilled in the art that the compounds can be assessed against other bacterial organisms and that the presentation of data for activity against Eschericia coli and Staphylococcus aureus are illustrative and in no way is intended to limit the scope of the present disclosure. The compounds of the present disclosure can be assayed against a range of other microorganisms depending upon the performance activity desired to be gathered. Furthermore, the “+” and “−” representation and the selection of a cutoff value of 16 micrograms/mL is also illustrative and in no way is intended to limit the scope of the present disclosure.

[2] = tested on: Eschericia coli (E. coli) strain ATCC25922; assay: standard microdilution MIC, E. coli; assay type: cell-based, Escherichia coli; details: Escherichia coli
Method: as §1, §2

[3] = tested on: Chinese hamster ovary (CHO) cells; assay: cytotoxicity against CHO cell line (Cell Titer Blue); assay type: cell-based; details: Cricetulus griseus, 24 h, CHO-K1 cells, 24 hours incubation, percent cell kill
Method: The compounds of the present disclosure were tested for cytotoxicity against Chinese hamster ovary (CHO) cells.
The assay was performed by seeding CHO—K1 in F12K medium containing 13.33% Fetal Bovine Serum […]. 37.5 μl of cell suspension at a concentration of 9,500 cells/well was plated into each column of a 384-well black clear bottom assay plate with the exception of a negative (no cell) control column, and allowed to adhere for 2 hours. The culture media was then removed from the 175 cm^2 flask(s) and the cell monolayer washed with 10 mL of Phosphate Buffered Saline PBS. 3 mL of Cellstripper™ was then added and the flask was incubated for approximately 5 min at 37° C. The cells were dissociated by agitation and 7 mL of F 12K medium containing 10% FBS was added to the flask. A homogeneous cell suspension was obtained by trituration of the flask. The cells were counted with a hemocytometer by diluting an aliquot of the cell suspension in PBS with 0.4% trypan blue. Typically, a ratio of 100 μl cell suspension to 1800 μl PBS to 100 μl trypan blue was used.
The volume of cell suspension containing the number of cells needed to seed the plate(s) (15.2 mL containing 3.8×10^6 cells) was calculated and transferred to a 50 mL centrifuge tube with the appropriate volume of media. 37.5 μl of cells were added to each well of the 384 well plate except for the negative (no cell) control column. A cytotoxicity 100-fold dilution plate was then prepared by manually pipetting 18 μl of 100% DMSO into two columns of an empty low volume dilution plate. 2 μl of a 50 mM solution of compounds 1-23 from the translation plate were manually pipetted into the corresponding columns of the 100-fold dilution plate. 10 μl of 100% DMSO was manually pipetted into all remaining columns of the 100-fold plate.
A 4-fold cytotoxicity plate was prepared beforehand by manually pipetting 48 μl of F12K media (without DMSO and without FBS) into each well of a matrix 384 well plate. The test samples in the 100-fold dilution plate were mixed and diluted. Ten 2-fold dilutions were performed for each compound in duplicate. The 384 cannula array then transferred 2 μl to the 48 μl of media in the cytotoxicity 4-fold dilution plate. The array was then mixed and 12.5 μl of samples from the cytotoxicity 4-fold dilution plate were transferred to the 37.5 μl of cells and media. The final top concentration of samples at this point in the procedure was 50 μM with 10 subsequent 1:2 dilutions down to […]. The final DMSO concentration were 1% and the final concentration of FBS was 10%.
Cycloheximide was run as a control. Specifically, Cycloheximide was diluted to 0.1 mM from 100 mM stock […] and was added to the cytotoxicity 100-fold plate. Upon addition to the cell plate, a range of 1 μM to 1 nM of cycloheximide was run.
A column separate from the one (referred to above) that served as the negative control was used for cell control wells to which only media was added.
The plates were then incubated for 24 hours at 37° C. and 5% CO2. […] The two columns used earlier to prepare the 100-fold dilution plate by pipetting 18 μl of 100% DMSO contained the samples tested at 200 μM. After the 24 hour incubation period, the 4 μl of Cell Titer blue was added to each well using a Multichannel Matrix pipettor. The plates were returned to the incubator and incubated for an additional 5 hours. Fluorescence (530 nm excitation wavelength/590 nm emission wavelength) was measured on a Wallac Victor microplate reader.
Cell viability was assessed fluorometrically after a 5 hour incubation with resazurin (Cell Titer Blue™), which is reduced by living cells to the fluorescent resorufin.
The average fluorescence for the negative control was determined to obtain the average blank fluorescence. The average blank fluorescence was subtracted from the fluorescence values obtained for all the test agents. The resulting values are the corrected fluorescence. […]

Row | Structure (SMILES) | MIC [1] [µg/mL] | MIC [2] [µg/mL] | pIC50 [3]
1 | CSc1cc(-n2cc3cc(-c4cc(CCC[C@@H](N)C5CC5)cc(Cl)c4F)[nH]c3nc2=O)ccc1[C@@H]1CCC[C@@H](CCNC(=N)CN)N1CCCF [Compound 48] | ≤ 16 | ≤ 16 | 4.87
2 | CSc1cc(-n2cc3cc(-c4cc(CCC[C@H](C)N)cc(Cl)c4F)[nH]c3nc2=O)ccc1[C@@H]1CCC[C@@H](CCNC(=N)CN)N1CCCF [Compound 49] | ≤ 16 | ≤ 16 | 4.68
3 | CSc1cc(-n2cc3cc(-c4cc(CCC[C@H](C)N)cc(Cl)c4F)[nH]c3nc2=O)cc(F)c1[C@@H]1CCC[C@@H](CCNC(=N)CN)N1CCCF [Compound 50] | ≤ 16 | ≤ 16 | 5.00
4 | CSc1cc(-n2cc3cc(-c4cc(CCC[C@H](C)N)cc(C(F)(F)F)c4)[nH]c3nc2=O)cc(F)c1[C@@H]1CCC[C@@H](CCNC(=N)CN)N1CCCF [Compound 51] | ≤ 16 | > 16 | < 4.00
5 | CSc1cc(-n2cc3cc(-c4cc(CCC[C@@H](N)C5CC5)cc(Cl)c4F)[nH]c3nc2=O)cc(F)c1[C@@H]1CCC[C@@H](CCNC(=N)CN)N1CCCF [Compound 52] | ≤ 16 | ≤ 16 | 4.80
6 | CSc1cc(-n2cc3cc(-c4cc(CCC[C@@H](N)C5CC5)cc(C(F)(F)F)c4)[nH]c3nc2=O)ccc1[C@@H]1CCC[C@@H](CCNC(=N)CN)N1CCCF [Compound 53] | ≤ 16 | ≤ 16 | < 4.00
7 | CSc1cc(-n2cc3cc(-c4cc(CCC[C@@H](N)C5CC5)cc(C(F)(F)F)c4)[nH]c3nc2=O)cc(F)c1[C@@H]1CCC[C@@H](CCNC(=N)CN)N1CCCF [Compound 54] | ≤ 16 | > 16 | < 4.00

The next lines start with results.

Row | MIC [1] [µg/mL] | MIC [2] [µg/mL] | Structure (SMILES) | pIC50 [3]
8 | ≤ 16 | ≤ 16 | C=C[C@H](N)CCCc1cc(-c2cc3cn(-c4ccc([C@@H]5CCC[C@@H](CCNC(=N)CN)N5CCCF)c(SC)c4)c(=O)nc3[nH]2)cc(C(F)(F)F)c1 [Compound 55] | < 4.00
9 | ≤ 16 | ≤ 16 | C=C[C@H](N)CCCc1cc(-c2cc3cn(-c4ccc([C@@H]5CCC[C@@H](CCNC(=N)CN)N5CCCF)cc4)c(=O)nc3[nH]2)cc(C(F)(F)F)c1 [Compound 56] | < 4.00
10 | ≤ 16 | ≤ 16 | C[C@H](N)CCCc1cc(Cl)c(F)c(-c2cc3cn(-c4ccc([C@@H]5CCC[C@@H](CCNC(=N)[C@@H](N)CO)N5)cc4)c(=O)nc3[nH]2)c1 [Compound 57] | < 4.00
11 | ≤ 16 | ≤ 16 | C[C@H](N)CCCc1cc(Cl)c(F)c(-c2cc3cn(-c4ccc([C@@H]5CCC[C@@H](CCNC(=N)[C@H](N)CO)N5)cc4)c(=O)nc3[nH]2)c1 [Compound 58] | < 4.00
12 | ≤ 16 | ≤ 16 | C[C@H](N)CCCc1cc(Cl)c(F)c(-c2cc3cn(-c4ccc([C@@H]5CCC[C@@H](CCNC(=N)[C@@H](C)N)N5)cc4)c(=O)nc3[nH]2)c1 [Compound 59] | < 4.00
13 | ≤ 16 | ≤ 16 | C[C@H](N)CCCc1cc(Cl)c(F)c(-c2cc3cn(-c4ccc([C@@H]5CCC[C@@H](CCNC(=N)[C@H](C)N)N5)cc4)c(=O)nc3[nH]2)c1 [Compound 60] | < 4.00
14 | ≤ 16 | ≤ 16 | C=C[C@H](N)CCCc1cc(Cl)c(F)c(-c2cc3cn(-c4ccc([C@@H]5CCC[C@@H](CCNC(=N)CN)N5CCCF)c(SC)c4)c(=O)nc3[nH]2)c1 [Compound 61] | 4.87
15 | ≤ 16 | > 16 | C=C[C@H](N)CCCc1cc(-c2cc3cn(-c4cc(F)c([C@@H]5CCC[C@@H](CCNC(=N)CN)N5CCCF)c(SC)c4)c(=O)nc3[nH]2)cc(C(F)(F)F)c1 [Compound 62] | < 4.00
16 | ≤ 16 | ≤ 16 | C=C[C@H](N)CCCc1cc(-c2cc3cn(-c4ccc([C@@H]5CCC[C@@H](CCNC(=N)CN)N5CCCF)c(F)c4)c(=O)nc3[nH]2)cc(C(F)(F)F)c1 [Compound 63] | < 4.00

— patent US10815237B2, “Antimicrobials and methods of making and using same” (BIOVERSYS AG, priority 2016, dated 2020)
